The text below walks through data of US7183280B2, “Bicyclic imidazole derivatives, the preparation thereof and their use as pharmaceutical compositions” (Boehringer Ingelheim International GmbH, priority 2004, dated 2007).

T1 sequence (P27487 whole entry): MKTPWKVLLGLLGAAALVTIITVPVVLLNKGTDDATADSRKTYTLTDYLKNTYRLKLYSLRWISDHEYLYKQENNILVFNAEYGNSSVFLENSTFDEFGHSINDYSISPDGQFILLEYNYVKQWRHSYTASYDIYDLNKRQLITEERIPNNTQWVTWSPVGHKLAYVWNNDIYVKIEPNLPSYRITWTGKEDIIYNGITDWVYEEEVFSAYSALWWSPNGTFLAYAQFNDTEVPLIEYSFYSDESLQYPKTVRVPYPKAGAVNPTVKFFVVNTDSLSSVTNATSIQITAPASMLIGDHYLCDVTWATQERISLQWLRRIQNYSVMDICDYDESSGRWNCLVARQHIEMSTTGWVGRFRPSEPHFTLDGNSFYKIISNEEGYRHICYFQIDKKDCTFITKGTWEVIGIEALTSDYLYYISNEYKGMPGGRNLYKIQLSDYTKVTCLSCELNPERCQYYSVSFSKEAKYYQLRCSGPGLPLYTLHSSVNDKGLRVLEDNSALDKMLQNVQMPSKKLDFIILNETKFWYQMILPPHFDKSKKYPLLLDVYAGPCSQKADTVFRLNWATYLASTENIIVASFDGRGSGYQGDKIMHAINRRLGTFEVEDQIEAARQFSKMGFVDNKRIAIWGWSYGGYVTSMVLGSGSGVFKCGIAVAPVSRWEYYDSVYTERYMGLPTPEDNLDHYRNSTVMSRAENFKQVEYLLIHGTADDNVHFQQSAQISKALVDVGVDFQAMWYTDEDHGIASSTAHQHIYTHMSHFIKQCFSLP

One data set addresses T1, DPP-IV (Homo sapiens, UniProt P27487).
T1 construct: an extract of the human colon carcinoma cell line Caco-2 is used as the DPP IV source; endogenous in cells; host or cells: Caco-2 (human colon carcinoma), differentiated to induce DPP-IV expression; Nonidet-P40 solubilised extract
The experiment in a line: DPP-IV assay with Caco-2 cell extract, AFC substrate, fluorescence. The format is biochemical. The conditions noted are these: extract of human colon carcinoma cell line Caco-2 as DPP IV source; AFC substrate 100 μM; 60 minutes, ambient temperature; read-out: DPP IV inhibition IC50. How it is done: The differentiation of the cells in order to induce the DPP-IV expression was carried out in accordance with the description by Reiher et al. in an article entitled “Increased expression of intestinal cell line Caco-2”, which appeared in Proc. Natl. Acad. Sci. Vol. 90, pp. 5757–5761 (1993). The cell extract was obtained from cells solubilised in a buffer (10 mM Tris HCl, 0.15 M NaCl, 0.04 t.i.u. aprotinin, 0.5% Nonidet-P40, pH 8.0) by centrifugation at 35,000 g for 30 minutes at 4° C. (to remove cell debris).
The DPP-IV assay was carried out as follows:
50 μl of substrate solution (AFC; AFC is amido-4-trifluoromethylcoumarin), final concentration 100 μM, were placed in black microtitre plates. 20 μl of assay buffer (final concentrations 50 mM Tris HCl pH 7.8, 50 mM NaCl, 1% DMSO) was pipetted in. The reaction was started by the addition of 30 μl of solubilised Caco-2 protein (final concentration 0.14 μg of protein per well). The test substances under investigation were typically added prediluted to 20 μl, while the volume of assay buffer was then reduced accordingly. The reaction was carried out at ambient temperature, the incubation period was 60 minutes. Then the fluorescence was measured in a Victor 1420 Multilabel Counter, with the excitation wavelength at 405 nm and the emission wavelength at 535 nm. Dummy values (corresponding to 0% activity) were obtained in mixtures with no Caco-2 protein (volume replaced by assay buffer), control values (corresponding to 100% activity) were obtained in mixtures without any added substance. The potency of the test substances in question, expressed as IC50 values, were calculated from dosage/activity curves consisting of 11 measured points in each case.
As for “1-[(1-oxy-quinolin-2-yl)methyl]-3-methyl-7-(2-butyn-1-yl)-8-((R)-3-amino-piperidin-1-yl)-xanthine [1(1)]”, the IC50 was 1 nM.
Same read-out and setting: the same measure for `CC#CCn1c(N2CCC[C@@H](N)C2)nc2c1c(=O)n(Cc1nc3ccccc3c(C)[n+]1[O-])c(=O)n2C` [Example 1, 1-[(4-methyl-3-oxy-quinazolin-2-yl)methyl]-3-methyl-7-(2-butyn-1-yl)-8-((R)-3-amino-piperidin-1-yl)-xanthine]: 2 nM; for `CC#CCn1c(N2CCC[C@@H](N)C2)nc2c1c(=O)n(Cc1nc3ccccc3c[n+]1[O-])c(=O)n2C` [1(4), 1-[(3-oxy-quinazolin-2-yl)methyl]-3-methyl-7-(2-butyn-1-yl)-8-((R)-3-amino-piperidin-1-yl)-xanthine]: 2 nM.
For `CC#CCn1c(N2CCC[C@@H](N)C2)nc2c1c(=O)n(Cc1c3ccccc3cc(C)[n+]1[O-])c(=O)n2C` [1(2), 1-[(3-methyl-2-oxy-isoquinolin-1-yl)methyl]-3-methyl-7-(2-butyn-1-yl)-8-((R)-3-amino-piperidin-1-yl)-xanthine], the 50% inhibitory concentration (IC50) was determined as 4 nM.
Take `CC#CCn1c(N2CCC[C@@H](N)C2)nc2c1c(=O)n(Cc1c3ccccc3c3ccccc3[n+]1[O-])c(=O)n2C` [1(3), 1-[(5-oxy-phenanthridin-6-yl)methyl]-3-methyl-7-(2-butyn-1-yl)-8-((R)-3-amino-piperidin-1-yl)-xanthine]: the half-inhibitory concentration (IC50) came out at 6 nM.

The next data set has as its system rats. The experiment in a line: Tolerability in rats after oral administration. In kind it is in vivo. The conditions noted are these: oral administration of 10 mg/kg.
Turning to `CC#CCn1c(N2CCC[C@@H](N)C2)nc2c1c(=O)n(Cc1nc3ccccc3c(C)[n+]1[O-])c(=O)n2C` [Example 1, 1-[(4-methyl-3-oxy-quinazolin-2-yl)methyl]-3-methyl-7-(2-butyn-1-yl)-8-((R)-3-amino-piperidin-1-yl)-xanthine], the toxic side effects entry is given as “no toxic side effects could be detected”.

What is called IC50 is the midpoint of a concentration-inhibition curve.
